Structures are written as SMILES. Like-named read-outs stand apart in the source and are kept apart here.

For series [1], the system named is aflatoxines produced by Aspergillus parasiticus. The series can be described thus: microbe, parasite or virus in culture. In kind it is cell-based.
For series [2], the system named is Sphaerotheca fuliginea. As to the kind of experiment: In vivo preventive test on Sphaerotheca fuliginea (cucumber). The note with it: 500 ppm of active ingredient, evaluated 7 days after inoculation. As to the method: Solvent: 49 parts by weight of N,N-dimethylformamide Emulsifier: 1 part by weight of Alkylarylpolyglycolether To produce a suitable preparation of active compound, 1 part by weight of active compound is mixed with the stated amounts of solvent and emulsifier, and the concentrate is diluted with water to the desired concentration. To test for preventive activity, young plants are sprayed with the preparation of active compound at the stated rate of application. One day after this treatment, the plants are inoculated with an aqueous spore suspension of Sphaerotheca fuliginea. Then the plants are placed in a greenhouse at approximately 23° C. and a relative atmospheric humidity of approximately 70%.

The subject of series [3] is Pyrenophora teres. The series can be described thus: In vivo preventive test on Pyrenophora teres (barley). The note with it: 500 ppm of active ingredient, evaluated 7-9 days after inoculation. The method, boiled down:
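Preventive test: young barley plants received a water-diluted spray of compound formulated with DMF solvent plus alkylaryl polyglycol ether emulsifier, at the stated rate. Inoculation with an aqueous spore suspension of Pyrenophora teres followed one day after spraying.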

For series [4], the system named is Alternaria solani. As to the kind of experiment: In vivo preventive test on Alternaria solani (tomato). The note with it: 500 ppm of active ingredient, evaluated 7 days after inoculation. The method, boiled down:
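Preventive set-up: Alternaria solani spores, as aqueous suspension, applied to young plants one day after spraying. Spray contained active compound formulated with N,N-dimethylformamide and emulsifier, water-diluted to the desired application rate.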

In series [5] the test system is Leptosphaeria nodorum. As to the kind of experiment: In vivo preventive test on Leptosphaeria nodorum (wheat). The note with it: 500 ppm of active ingredient, evaluated 7-9 days after inoculation. On the procedure:
Solvent: 49 parts by weight of N,N-dimethylacetamide Emulsifier: 1 part by weight of alkylaryl polyglycol ether To produce a suitable preparation of active compound, 1 part by weight of active compound is mixed with the stated amounts of solvent and emulsifier, and the concentrate is diluted with water to the desired concentration. To test for preventive activity, young plants are sprayed with a preparation of active compound at the stated rate of application. One day after this treatment, the plants are inoculated with an aqueous spore suspension of Leptosphaeria nodorum.

In series [6] the test system is Aspergillus parasiticus. The series can be described thus: microbe, parasite or virus in culture. The format is cell-based.
Series [7] in a line: log P by HPLC on reversed-phase column (EEC Directive 79/831 Annex V.A8). The format is physicochemical. As to the method: In table 1, the log P values were determined in accordance with EEC Directive 79/831 Annex V.A8 by HPLC (High Performance Liquid Chromatography) on a reversed-phase column (C18), using the method described below: Temperature: 40° C.; […]
Series [8] relates to Puccinia triticina. The series can be described thus: In vivo preventive test on Puccinia triticina (wheat). The note with it: Table K, 500 ppm of active ingredient, evaluated 8 days after inoculation.

For the compound `Cn1nc(C(F)F)c(C(=O)N(C[Si](C)(C)Cc2ccc(Cl)cc2Cl)C2CC2)c1F` [Example 298], the “% Inhibition of Aflatoxin at 50 μM” value in series [1] is reported as 100%. Moreover, the Efficacy in series [2] is listed as 85%; in series [3] it was 100%; in series [4] it was 100%; in series [5] it was 95%. Also, the “% Inhibition of fungal growth at 50 μM” value in series [6] is reported as 100%. In series [7], this compound yielded a logP of 5.03.

For `CN(CCCc1cc(Cl)ccc1Cl)C(=S)c1c(C(F)F)nn(C)c1F` [Example 168], the results for the Efficacy in series [3], in series [4] and in series [5] were 100%, 90% and 90%, respectively. Moreover, in series [7], the logP is reported as 4.11.

As to `CC(CC1CCCCC1NC(=O)c1c(C(F)F)nn(C)c1Cl)C1CC1` (stereo not shown) [Example 328], the “% Inhibition of Aflatoxin at 50 μM” value in series [1] worked out at 100%. Also, the Efficacy in series [2] is recorded as 100%; in series [3], 95%; in series [4], 95%; in series [5], 80%. For the same compound, the “% Inhibition of fungal growth at 50 μM” value in series [6] worked out at 91%. Moreover, the logP in series [7] turned out to be 4.28.

Turning to `CC1CC(N(C(=O)c2c(C(F)F)nn(C)c2F)C2CC2)CC(C)(C)C1` (stereo not shown) [Example 322], the “% Inhibition of Aflatoxin at 50 μM” value in series [1] was determined as 100%. Further, the Efficacy in series [2] came to 90%; in series [3], 100%; in series [4] it was 90%; in series [5] it was 90%; in series [8], 95%. In series [6], the “% Inhibition of fungal growth at 50 μM” value was determined as 99%. In series [7], this compound gave a logP of 4.31.

For the compound `CC(CCc1ccc(Cl)c(Cl)c1)NC(=O)c1c(C(F)F)nn(C)c1Cl` (racemic) [Example 131], the Efficacy in series [3] was 100%; in series [4] it was 95%; in series [5] it was 80%. The same compound gave a logP in series [7] of 3.85.

In the case of `CC(C)CC(C)C1CCCC1NC(=O)c1c(C(F)F)nn(C)c1F` (single isomer, unassigned) [Example 318], in series [1], the “% Inhibition of Aflatoxin at 50 μM” value turned out to be 100%. The Efficacy in series [2] was 93%; in series [3] it was 100%; in series [4], 90%; in series [5], 70%. In series [6] (50 µM), the “% Inhibition of fungal growth at 50 μM” value is recorded as 89%. Also, the logP in series [7] is 4.27 isomer C.

As to `Cn1nc(C(F)F)c(C(=O)N(CCOc2ccc(-c3ccccc3)cc2)C2CC2)c1F` [Example 29], the Efficacy in series [3] was found to be 100%; in series [4], 80%; in series [5] it was 80%. The compound also yielded a logP in series [7] of 3.90.

`Cn1nc(C(F)F)c(C(=O)N(C[Si](C)(C)Cc2ccccc2Cl)C2CC2)c1F` [Example 295]: the “% Inhibition of Aflatoxin at 50 μM” value in series [1] stood at 100%. In addition, the Efficacy in series [3], in series [4] and in series [5] was 100% each time. Also, the “% Inhibition of fungal growth at 50 μM” value in series [6] is given as 100%. The logP in series [7] is recorded as 4.41.

For the compound `CCC1(CNC(=O)c2c(C(F)F)nn(C)c2Cl)CCCCC1` [Example 365], in series [5], the Efficacy came to 90%. For the same compound, the logP in series [7] is on record as 3.78.

As to `Cn1nc(C(F)F)c(C(=O)N(C[Si](C)(C)Cc2ccccc2Cl)C2CC2)c1Cl` [Example 294], in series [1], the “% Inhibition of Aflatoxin at 50 μM” value turned out to be 100%. The Efficacy is 95% in series [3], 95% in series [4] and 70% in series [5]. Further, the “% Inhibition of fungal growth at 50 μM” value in series [6] came to 84%. In series [7], this compound registered a logP of 4.56.

With `CC(CNC(=O)c1c(C(F)F)nn(C)c1F)Cc1c(F)cccc1F` (stereo not shown) [Example 157], the Efficacy in series [3] was found to be 100%; in series [4], 80%; in series [5], 80%. Also, the logP in series [7] came out at 3.02.

Regarding `Cn1nc(C(F)F)c(C(=O)N(C[Si](C)(C)Cc2cccc(Cl)c2)C2CC2)c1Cl` [Example 290], in series [1], the “% Inhibition of Aflatoxin at 50 μM” value is given as 82%. Further, the Efficacy in series [3] was 100%; in series [4], 95%; in series [5], 80%. For the same compound, the “% Inhibition of fungal growth at 50 μM” value in series [6] is given as 72%. For the same compound, in series [7], the logP was 4.59.

Regarding `CC(CCc1c(Cl)cc(Cl)cc1Cl)N(C(=S)c1c(C(F)F)nn(C)c1F)C1CC1` (stereo not shown) [Example 219], the “% Inhibition of Aflatoxin at 50 μM” value in series [1] was determined as 81%. Further, the Efficacy in series [2] is on record as 100%; in series [3] it was 100%; in series [4], 95%; in series [5], 90%. Further, the “% Inhibition of fungal growth at 50 μM” value in series [6] is recorded as 71%. In series [7], this compound showed a logP of 5.81.

As for `Cn1nc(C(F)F)c(C(=O)N(C[Si](C)(C)Cc2ccccc2)C2CC2)c1Cl` [Example 287], the Efficacy in series [3] is reported as 100%; in series [4], 95%; in series [5], 95%. The logP in series [7] was 4.20.

For the compound `Cn1nc(C(F)F)c(C(=S)N(C[Si](C)(C)Cc2ccccc2Cl)C2CC2)c1F` [Example 296], the Efficacy in series [2] was 70%; in series [3] it was 100%; in series [4] it was 80%; in series [5], 95%. Besides, the logP in series [7] is given as 5.00.

In the case of `Cn1nc(C(F)F)c(C(=S)N(C[Si](C)(C)Cc2ccc(Cl)cc2Cl)C2CC2)c1F` [Example 299], the results for the Efficacy in series [3], in series [4] and in series [5] were 100%, 95% and 95%, respectively. This compound also displayed a logP in series [7] of 5.57.

Regarding `Cc1ccnc(OCC(C)NC(=O)c2c(C(F)F)nn(C)c2Cl)c1` (stereo not shown) [Example 37], the Efficacy in series [3] is 100%; in series [4], 80%; in series [5] it was 90%. In series [7], this compound registered a logP of 2.13.

In the case of `Cn1nc(C(F)F)c(C(=O)N(C2CC2)C2CCCCC2Oc2ccccc2)c1F` (stereo not shown) [Example 247], the “% Inhibition of Aflatoxin at 50 μM” value in series [1] (50 µM) came out at 93%. For the same compound, the Efficacy came out at 100% in series [2], 100% in series [3], 95% in series [5] and 100% in series [8]. Besides, the “% Inhibition of fungal growth at 50 μM” value in series [6] (50 µM) was found to be 78%. In series [7], this compound came in with a logP of 4.21.

Take `Cc1nn(C)c(F)c1C(=O)N(C(C)CCc1ccccc1C(F)(F)F)C1CC1` (stereo not shown) [E-12 from WO-2008/101976, N-cyclopropyl-5-fluoro-1,3-dimethyl-N-{4-[2-(trifluoromethyl)phenyl]butan-2-yl}-1H-pyrazole-4-carboxamide, reference compound]: the results for the Efficacy in series [5] and in series [5] (listed as example E-12 disclosed in patent application WO-2008/101976) were 10% and “less than 10%”, respectively.

Consider `Cn1nc(C(F)F)c(C(=O)NC2CCCCC2Oc2ccccc2)c1F` (stereo not shown) [Example 245], for which the Efficacy in series [3] is listed as 78%; in series [4], 90%; in series [5], 90%; in series [8], 70%. This compound also registered a logP in series [7] of 3.52.

Regarding `Cn1nc(C(F)F)c(C(=O)N(C[Si](C)(C)Cc2cc(Cl)cc(Cl)c2)C2CC2)c1F` [Example 293], in series [1], the “% Inhibition of Aflatoxin at 50 μM” value was determined as 100%. The compound further returned an Efficacy in series [5] of 94%. The “% Inhibition of fungal growth at 50 μM” value in series [6] was 100%. The logP in series [7] stood at 4.98.

In the case of `CC(CCc1ccc(Cl)c(Cl)c1)N(C(=O)c1c(C(F)F)nn(C)c1Cl)C1CC1` (racemic) [Example 130], the Efficacy in series [3] is recorded as 95%; in series [4] it was 95%; in series [5], 90%; in series [8], 70%. In addition, the logP in series [7] amounted to 4.62.

Source of the values: patent US8999956B2, “N-[(het)arylalkyl)] pyrazole(thio)carboxamides and their heterosubstituted analogues” (Bayer Intellectual Property GmbH, priority 2010, dated 2015).
